Patent publication US20260125727A1, “METHOD FOR PRODUCING A COMPOSITION, A COMPOSITION COMPRISING AN OLIGOSACCHARIDE OBTAINED THEREBY, AND USES THEREOF” (MEIJI CO., LTD., priority 2022, published 2026)

How the values were obtained:
Parabacteroides bacteria = assay: Promotion of growth of Parabacteroides bacteria in the intestinal microbiota; settings: studies of the inventors, no method given
Bifidobacterium bacteria = assay: Promotion of growth of Bifidobacterium bacteria in the intestinal microbiota; settings: studies of the inventors, no method given
[1] = Evaluation of thermal stability of aqueous solution (residual ratio of galactosylkojibiose after heat treatment, HPLC); type: physicochemical; settings: for change of galactosylkojibiose HPLC peak after heat treatment: 120° C. for 20 minutes, 12 wt % solution in buffer
Procedure: Buffers having various pH values (100 mM citrate-phosphate buffer for pH 3 to 6 and 100 mM phosphate buffer for pH 6 to 8) were used to dissolve the purified and fractionated galactosylkojibiose obtained in Example 3 so that the resulting solutions should have 12° Bx (12 wt %). The solutions were subjected to a heat treatment at 60° C., 80° C., 100° C., and 120° C. for 20 minutes by using an autoclave, and then residual ratio of galactosylkojibiose was evaluated.
The residual ratio was calculated from the results obtained by using HPLC method performed under the following conditions. • Column: SUPELCO apHera™ NH2 HPLC Column • Mobile phase: 68% acetonitrile • Column temperature: 35° C. • Flow rate: 1.0 mL/min • Detection: RI

decay of galactosylkojibiose after heat treatment ([1]; 60° C. for 20 minutes, any pH value (pH 3 to 8)) | change of galactosylkojibiose HPLC peak after heat treatment ([1]; pH 6 or lower) | change of galactosylkojibiose HPLC peak after heat treatment ([1]; pH 7 or higher, new peak at around 12.1 minutes) | Structure (SMILES) | growth of Parabacteroides bacteria in the intestinal microbiota (Parabacteroides bacteria) | growth of Bifidobacterium bacteria in the intestinal microbiota (Bifidobacterium bacteria)
 |  |  | OCC1O[C@H](OC2[C@H](O)OC(CO)[C@@H](O)[C@@H]2O)C(O)[C@@H](O)[C@@H]1O (stereo partly shown) [kojibiose] | promote the growth | promote the growth
not observed | no significant change | decay of the chromatographic peak | OCC1O[C@H](OC2C(O)[C@H](O[C@@H]3OC(CO)[C@H](O)C(O)C3O)C(CO)O[C@H]2O)C(O)C(O)[C@@H]1O (stereo partly drawn) [galactosylkojibiose, α-D-glucopyranosyl-(1→2)-[β-D-galactopyranosyl-(1→4)-]D-glucopyranoside] | promote the growth | promote the growth
